In brackets after ≈: the same amount, converted by molar mass. Activity calls are given as the source filed them. The rule behind the calls is not given here.
Key:
Staphylococcus aureus [1] = test: Antibacterial agents against methicillin-resistant Staphylococcus aureus SA3 assessed as absence of growth measured after 18 hrs by micro-dilution method; type: functional
Staphylococcus aureus [2] = test: Antibacterial agents against methicillin-resistant Staphylococcus aureus USA300 assessed as absence of growth measured after 18 hrs by micro-dilution method; type: functional
Staphylococcus aureus [3] = test: Antibacterial agents against methicillin-sensitive Staphylococcus aureus SA1 assessed as absence of growth measured after 18 hrs by micro-dilution method; type: functional
Staphylococcus aureus [4] = test: Antibacterial agents against methicillin-sensitive Staphylococcus aureus Newman assessed as absence of growth measured after 18 hrs by micro-dilution method; type: functional
Bacillus subtilis = test: Antibacterial agents against Bacillus subtilis PS380 assessed as absence of growth measured after 18 hrs by micro-dilution method; type: functional
[5] = In vivo toxicity in Drosophila melanogaster strain Oregon R assessed as survival rate at 0.1 to 1 mg/ml measured upto 72 hrs relative to control; type: organism-based; conditions: dose 0.1-1 mg/ml; for Activity: 72 h
[6] = Metabolic stability in human liver microsomes assessed as half life at 2 uM preincubated for 5 mins followed by NADPH addition and measured for 35 mins by LC/MS analysis; type: ADME, Microsome; conditions: preincubation 5 min
[7] = Metabolic stability in human liver microsomes assessed as intrinsic clearance at 2 uM preincubated for 5 mins followed by NADPH addition and measured for 35 mins by LC/MS analysis; type: ADME, Microsome; conditions: read-out: CLH
Staphylococcus aureus [8] = test: In vivo antibacterial activity against methicillin-resistant Staphylococcus aureus SA3 infected in dorsal thorax of Drosophila melanogaster strain Oregon R assessed as survival time of Drosophila at 0.2 mg/ml measured upto 72 hrs; type: functional
Staphylococcus aureus [9] = test: In vivo antibacterial activity against methicillin-resistant Staphylococcus aureus SA3 infected in dorsal thorax of Drosophila melanogaster strain Oregon R assessed as median survival time of Drosophila at 0.04 to 0.2 mg/ml measured upto 72 hrs; type: functional; conditions: dose 0.04-0.2 mg/ml
Staphylococcus aureus [10] = test: Reduction in virulent activity of methicillin-resistant Staphylococcus aureus SA3 infected in dorsal thorax of Drosophila melanogaster strain Oregon R at 0.2 mg/ml measured upto 72 hrs; type: functional, organism-based

Row | Structure (SMILES) | MIC (Staphylococcus aureus [1]) [µg/mL] | MIC (Staphylococcus aureus [3]) [µg/mL] | MIC (Bacillus subtilis) [µg/mL] | further results
1 | Cc1n(C2CCCC2)c2c([n+]1Cc1ccccc1)C(=O)c1ccccc1C2=O.[Br-] | 12.5 | – | – | –
2 | CCCCCCCCCn1c2c([n+](Cc3ccccc3)c1C)C(=O)c1ccccc1C2=O.[Br-] | 0.39 | 0.39 | 1.56 | MIC (Staphylococcus aureus [2]): 0.39 µg/mL; MIC (Staphylococcus aureus [4]): 0.39 µg/mL; Activity [5]: Toxic; half-life at 2 µM [6]: 51.8 min; CLint scaled at 2 µM [7]: 26 mL/min/kg
3 | CCCCCCCn1c2c([n+](Cc3ccco3)c1C)C(=O)c1ccccc1C2=O.[Br-] | 0.78 | 0.78 | 0.78 | MIC (Staphylococcus aureus [2]): 0.78 µg/mL; MIC (Staphylococcus aureus [4]): 0.78 µg/mL; Activity [5]: Non-Toxic; half-life at 2 µM [6]: 55.1 min; CLint scaled at 2 µM [7]: 24 mL/min/kg
4 | CCCn1c2c([n+](Cc3ccccc3)c1C)C(=O)c1ccccc1C2=O.[Br-] | 6.25 | – | – | –
5 | CCCCCCCn1c2c([n+](CCCCCCC)c1C)C(=O)c1ccccc1C2=O.[Br-] | 0.39 | 0.39 | 0.39 | MIC (Staphylococcus aureus [2]): 0.39 µg/mL; MIC (Staphylococcus aureus [4]): 0.39 µg/mL; Activity [5]: Non-Toxic; half-life at 2 µM [6]: 17.4 min; CLint scaled at 2 µM [7]: 77 mL/min/kg
6 | CCCCCn1c2c([n+](Cc3ccccc3)c1C)C(=O)c1ccccc1C2=O.[Br-] | 1.56 | 3.13 | 6.25 | –
7 | CCCCn1c2c([n+](Cc3ccco3)c1C)C(=O)c1ccccc1C2=O.[Br-] | 6.25 | – | – | –
8 | Cc1n(C2CCC2)c2c([n+]1Cc1ccccc1)C(=O)c1ccccc1C2=O.[Br-] | 3.13 | – | – | –
9 | CCCCCCCCCCn1c2c([n+](CCCC)c1C)C(=O)c1ccccc1C2=O.[Br-] | 3.13 | – | – | –
10 | CCCC[n+]1c2c(n(C(C)(C)C)c1C)C(=O)c1ccccc1C2=O.[Br-] | 6.25 | – | – | –
11 | CCCn1c2c([n+](Cc3ccco3)c1C)C(=O)c1ccccc1C2=O.[Br-] | 12.5 | – | – | –
12 | CCCCCCn1c2c([n+](Cc3ccco3)c1C)C(=O)c1ccccc1C2=O.[Br-] | 0.78 | 0.78 | 3.13 | –
13 | Cc1n(CC2CC2)c2c([n+]1Cc1ccccc1)C(=O)c1ccccc1C2=O.[Br-] | 1.56 | 0.78 | 1.56 | –
14 | CCCCCCCCn1c2c([n+](CCCCCCCC)c1C)C(=O)c1ccccc1C2=O.[Br-] | 3.13 | – | – | –
15 | COCC[n+]1c2c(n(Cc3cnccn3)c1C)C(=O)c1ccccc1C2=O.[Br-] [SEPANTRONIUM BROMIDE] | 50 | – | – | –
16 | CCCCCn1c2c([n+](CCCCC)c1C)C(=O)c1ccccc1C2=O.[Br-] | 3.13 | – | – | –
17 | Cc1n(C2CCCCC2)c2c([n+]1Cc1ccccc1)C(=O)c1ccccc1C2=O.[Br-] | 1.56 | 0.78 | 1.56 | –
18 | CCCCCC[n+]1c2c(n(CCCC)c1C)C(=O)c1ccccc1C2=O.[Br-] | 3.13 | – | – | –
19 | CCCCCn1c2c([n+](Cc3ccco3)c1C)C(=O)c1ccccc1C2=O.[Br-] | 3.13 | – | – | –
20 | CCCCCCCn1c2c([n+](Cc3ccccc3)c1C)C(=O)c1ccccc1C2=O.[Br-] | 0.78 | 0.39 | 0.78 | MIC (Staphylococcus aureus [2]): 0.78 µg/mL; MIC (Staphylococcus aureus [4]): 0.39 µg/mL; survival at 72 h ([5]; Oregon R, at 0.1 to 1 mg/mL): 75%; half-life at 2 µM [6]: 15.6 min; CLint scaled at 2 µM [7]: 101 mL/min/kg
21 | CCCCn1c2c([n+](Cc3ccccc3)c1C)C(=O)c1ccccc1C2=O.[Br-] | 12.5 | – | – | –
22 | Cc1n(C(C)(C)C)c2c([n+]1Cc1ccccc1)C(=O)c1ccccc1C2=O.[Br-] | 3.13 | – | – | –
23 | CCCCn1c2c([n+](C3CCCCC3)c1C)C(=O)c1ccccc1C2=O.[Br-] | 25 | – | – | –

Row | Structure (SMILES) | MIC (Staphylococcus aureus [1]) [µg/mL] | MIC (Staphylococcus aureus [3]) [µg/mL] | MIC (Bacillus subtilis) [µg/mL] | further results
24 | CCCCCCCCCCn1c2c([n+](Cc3ccccc3)c1C)C(=O)c1ccccc1C2=O.[Br-] | 0.39 | 0.39 | 1.56 | MIC (Staphylococcus aureus [2]): 0.39 µg/mL; MIC (Staphylococcus aureus [4]): 0.39 µg/mL; Activity [5]: Toxic; half-life at 2 µM [6]: 13.2 min; CLint scaled at 2 µM [7]: 103 mL/min/kg
25 | Cc1n(C2CCCCCC2)c2c([n+]1Cc1ccccc1)C(=O)c1ccccc1C2=O.[Br-] | 6.25 | – | – | –
26 | CCCCCCCCn1c2c([n+](Cc3ccco3)c1C)C(=O)c1ccccc1C2=O.[Br-] | 0.39 | 0.39 | 0.39 | MIC (Staphylococcus aureus [2]): 0.39 µg/mL; MIC (Staphylococcus aureus [4]): 0.39 µg/mL; Activity [5]: Toxic; half-life at 2 µM [6]: 16.1 min; CLint scaled at 2 µM [7]: 95 mL/min/kg
27 | CCCCCCCCn1c2c([n+](CCCC)c1C)C(=O)c1ccccc1C2=O.[Br-] | 0.39 | 0.39 | 0.39 | MIC (Staphylococcus aureus [2]): 0.39 µg/mL; MIC (Staphylococcus aureus [4]): 0.39 µg/mL; Activity [5]: Non-Toxic; half-life at 2 µM [6]: 11.6 min; CLint scaled at 2 µM [7]: 125 mL/min/kg
28 | CCCC[n+]1c2c(n(C3CCC3)c1C)C(=O)c1ccccc1C2=O.[Br-] | 25 | – | – | –
29 | CN[C@H](CC(C)C)C(=O)N[C@H]1C(=O)N[C@@H](CC(N)=O)C(=O)N[C@H]2C(=O)N[C@H]3C(=O)N[C@H](C(=O)N[C@H](C(=O)O)c4cc(O)cc(O)c4-c4cc3ccc4O)[C@H](O)c3ccc(c(Cl)c3)Oc3cc2cc(c3O[C@@H]2O[C@H](CO)[C@@H](O)[C@H](O)[C@H]2O[C@H]2C[C@](C)(N)[C@H](O)[C@H](C)O2)Oc2ccc(cc2Cl)[C@H]1O [VANCOMYCIN] | 6.25 (≈ 4.31 µM) | 1.56 (≈ 1.08 µM) | 0.19 (≈ 0.131 µM) | MIC (Staphylococcus aureus [2]): 6.25 µg/mL (≈ 4.31 µM); MIC (Staphylococcus aureus [4]): 1.56 µg/mL (≈ 1.08 µM); Time (Staphylococcus aureus [8]): 54 h; Time (Staphylococcus aureus [9]): 40 h; Activity (Staphylococcus aureus [10]): inactive
30 | Cc1n(CC(C)C)c2c([n+]1Cc1ccccc1)C(=O)c1ccccc1C2=O.[Br-] | 3.13 | – | – | –
31 | CCCC[n+]1c2c(n(CC(C)C)c1C)C(=O)c1ccccc1C2=O.[Br-] | 3.13 | – | – | –
32 | CCCCCCCn1c2c([n+](CCCC)c1C)C(=O)c1ccccc1C2=O.[Br-] | 0.78 | 0.78 | 0.39 | –
33 | Cc1n(C(C)C)c2c([n+]1Cc1ccccc1)C(=O)c1ccccc1C2=O.[Br-] | 3.13 | – | – | –
34 | CCCC[n+]1c2c(n(CC3CC3)c1C)C(=O)c1ccccc1C2=O.[Br-] | 12.5 | – | – | –
35 | CCCCCn1c2c([n+](CCCC)c1C)C(=O)c1ccccc1C2=O.[Br-] | 3.13 | – | – | –
36 | CCCCCCn1c2c([n+](CCCCCC)c1C)C(=O)c1ccccc1C2=O.[Br-] | 0.78 | 0.78 | 1.56 | MIC (Staphylococcus aureus [2]): 0.78 µg/mL; MIC (Staphylococcus aureus [4]): 0.78 µg/mL
37 | Cc1n(CC2CCCCC2)c2c([n+]1Cc1ccccc1)C(=O)c1ccccc1C2=O.[Br-] | 1.56 | 1.56 | 0.78 | –
38 | CCn1c2c([n+](Cc3ccccc3)c1C)C(=O)c1ccccc1C2=O.[Br-] | 3.13 | – | – | –
39 | Cc1n(Cc2ccco2)c2c([n+]1Cc1ccccc1)C(=O)c1ccccc1C2=O.[Br-] | 6.25 | – | – | –
40 | CCCCCCn1c2c([n+](Cc3ccccc3)c1C)C(=O)c1ccccc1C2=O.[Br-] | 0.78 | 0.78 | 0.78 | –
41 | CCCCCCCCCn1c2c([n+](CCCC)c1C)C(=O)c1ccccc1C2=O.[Br-] | 3.13 | – | – | –
42 | CCn1c2c([n+](Cc3ccco3)c1C)C(=O)c1ccccc1C2=O.[Br-] | 12.5 | – | – | –
43 | CCCCn1c2c([n+](CC3CCCCC3)c1C)C(=O)c1ccccc1C2=O.[Br-] | 3.13 | – | – | –
44 | CCCC[n+]1c2c(n(C(C)C)c1C)C(=O)c1ccccc1C2=O.[Br-] | 3.13 | – | – | –
45 | Cc1n(C2CC2)c2c([n+]1Cc1ccccc1)C(=O)c1ccccc1C2=O.[Br-] | 6.25 | – | – | –

From ChEMBL document CHEMBL5500375, “Design, synthesis, and evaluation of N1,N3-dialkyldioxonaphthoimidazoliums as antibacterial agents against methicillin-resistant Staphylococcus aureus” (Eur J Med Chem, 2024)
